From US7276050B2, “Trans-scleral drug delivery method and apparatus” (priority 2004, dated 2007)

Columns and labels:
[1] = system: hyperoxia-induced ocular neovascularization; assay: Mouse pup model of hyperoxia-induced ocular neovascularization; format: in vivo
Excerpt: Testing of CAI in a mouse pup model of hyperoxia-induced ocular neovascularization, in which posterior retinal ischemia mediates of pathological angiogenesis, has confirmed that CAI is a potent inhibitor of ocular angiogenesis in this model.

[2] = Transmission electron microscopy of sclera after diffusion experiments; parameters: species or system human; details: after diffusion experiments with CAI in all three test solutions
Procedure: At the end of the trans-scleral diffusion experiments with CAI (DMSO 10%, 20%, and ethanol 10%) and 2ME2 (1% DMSO) the scleral tissue was fixed in 2.5% glutaraldehyde in 0.1 M sodium cacodylate buffer and prepared for transmission electron microscopy (TEM). The scleral tissue was bisected and postfixed in 2% osmium tetroxide for 2 hours. Small pieces of the sclera were embedded in low-viscosity epoxy medium, thin sectioned, stained with uranyl acetate and lead citrate, and viewed with a JEOL 100 CX transmission electron microscope. The micrographs were taken at X 2850.

[3] = cited from earlier work
[4] = Trans-scleral diffusion in 2 chamber perfusion apparatus (HPLC readout); format: in vitro ADME, human
Excerpt: Scleral tissue was obtained from 23 human donor eyes (Georgia Eye Bank, Atlanta) and was stored in moist chambers for 2-6 days post-mortem. The mean age at time of death (±SE) for the donor tissue used in this study was 52.4±4.4 years. Scleral tissue was dissected from the superotemporal quadrant of each eye to minimize associated structures that can modify scleral permeability such as vortex veins, posterior ciliary arteries, and anterior ciliary vessels. Uveal tissue and episclera were carefully removed using a cotton-tip applicator. The sclera was mounted horizontally in a 2 chamber acrylic perfusion apparatus (FIG. 1). The uveal surface was apposed to the lower flow-through hemi-chamber (volume 500 μL) containing balanced salt solution (BSS, Alcon laboratories, Ft. Worth, Tex.). The test solution was applied to the episcleral surface. Since CAI has a 423 Da molecular weight and the molecule is hydrophobic with a solubility of 1-10 μM in water, three different test solutions that contained carboxyamido-triazole were evaluated: CAI in 20% DMSO (80% BSS vol/vol) at a concentration (mean±SE) of 15.2±3.0 μM (solution A), CAI in 10% DMSO (90% BSS) at a concentration of 4.1±0.4 μM (solution B), and CAI in 10% ethanol (90% BSS) at a concentration of 3.3±0.2 μM (solution C).
The BSS in the lower hemi-chamber was perfused at a rate of 0.03 ml/min. The perfusion apparatus was placed on a magnetic stir plate and mixing in the lower hemi-chamber was achieved using a stir bar. The upper hemi-chamber containing the test compound was covered with parafilm and sealed with silicone grease to prevent evaporation. This also provided a flexible seal so that trans-scleral pressure would not be altered. The temperature of the apparatus was maintained at 37° C. by a water jacket with circulating water bath.
A physiologic pressure of 15 mm Hg was applied across the sclera by raising the height of the outflow tube of the receptor (lower-) chamber to 22 cm. A pressure transducer that was connected to the lower hemi-chamber verified the pressure. For all three solutions that contained carboxyamido-triazole 100 μl was applied to the episcleral side and samples of perfusate were collected at the uveal side of the sclera at time zero and at 30-minute intervals for the duration of 8 hours. The scleral permeability to CAI in a 10% ethanol solution was also evaluated over a longer period of 24 hours of which samples were taken hourly. For the 24 hours experiments 500 μl of the test solution was added to the upper hemi-chamber to minimize depletion of the drug on the donor side.
From each sample obtained from the trans-scleral diffusion experiments an aliquot of 100 μl was taken and the concentrations of CAI were monitored by reverse-phase high-performance liquid chromatography (HPLC). Results were calculated on the basis of peak areas. Samples were analyzed by using a Hewlett Packard HP1100 HPLC system equipped with a UV detector, an auto-sampler, a pump, and a HP Kayak workstation that controls the operation of HPLC and analyzes the data. A Zorbak Rx-C8 column (4.6×250 mm) was used for separation and detection was set at 260 nm. The flow rate employed was 1.0 ml/min with mobile phase of 55% acetonitrile and 45% water. The injection volume was 100 μl and retention time of CAI was about 7.8 minutes.
Steady state permeability constants were calculated from the data as: Ktrans=[Rtotal/(t)(A)]×1/[D]
Where Rtotal is the amount of drug in the receiver effluent per collected fraction, and t is the fraction collection time (in seconds). A is the area of exposed sclera (in square centimeters). This value—Rtotal/(t)(A)—is equal to the flux across the tissue. D is the concentration of drug in the donor hemi-chamber. Permeability thus represents the steady state flux normalized by donor concentration. The area of exposed sclera was 0.385 cm2. Mean steady state permeability values (±SE) were calculated from four to eight experiments performed for each compound.

[5] = mouse pup, hyperoxia-induced ocular neovascularization

NC(=O)c1nnn(Cc2cc(Cl)c(C(=O)c3ccc(Cl)cc3)c(Cl)c2)c1N [CAI, Carboxyamido-triazole]
intracellular bcl-2 (immunohistochemistry) ([1]; ischemic inner plexiform layer, mouse pup model): up regulation of intracellular bcl-2 | formation of neovascular fronds [1, 5]: nearly completely abolished formation of neovascular fronds | regression of preformed neovascular fronds [1, 5]: dramatic and significant regression of preformed neovascular fronds | scleral ultrastructure by TEM [2]: normal ultrastructure within the sclera | solubility in water [3]: 1 to 10 µM | diffusion across the sclera [4]: diffused across the sclera effectively | time at which semi-steady state flux was observed ([4]; human, 3.3 μM): 13 h | time to reach steady state ([4]; human, 4.1 μM): 6 h | time to reach semi-steady state ([4]; human, 15.2 μM): approximately 5 hours | Papp at 8 h, 15.2 μM ([4]; solution A: 15.2 μM CAI in 20% DMSO (80% BSS), human sclera, 37° C., 15 mm Hg, n=4, read-out: permeability constant (mean±SE)): 2.8 ×10⁻⁶ cm/s | Papp at 8 h, 4.1 μM ([4]; solution B: 4.1 μM CAI in 10% DMSO (90% BSS), human sclera, n=7, read-out: permeability constant (mean±SE)): 5.5 ×10⁻⁶ cm/s | Papp at 24 h, 3.3 μM ([4]; solution C: 3.3 μM CAI in 10% EtOH (90% BSS), 24 hour sampling, human sclera, n=4, read-out: permeability constant (mean±SE)): 4.16 ×10⁻⁶ cm/s
